Source: patent EP1960421B1, “NEW POLYPEPTIDES AND THEIR USE” (SEDERMA, priority 2005, dated 2007)
Peptide text beside a SMILES is read from it. * marks the point of attachment. Palmitoyl = CCCCCCCCCCCCCCCC(=O)*

Assay: Solubility in the cell culture conditions (medium without foetal calf serum and few solvent)
Type: physicochemical
Details: cell culture medium without foetal calf serum and few solvent (DMSO 0.08%)
Description: After 3 days of incubation, supernatants were collected and frozen. Survival was estimated on cell layer using a fluorescent probe. Collagen I was estimated using an original direct ELISA method. Results: TGF-b1 should be promoter of Collagen I synthesis. Statistical analysis were performed on Collagen I data (n=3 to n=5 / assay). Results obtained with molecules were compared to negative control. A Student t test for non paired values was used; significativity was obtained if p < 0.05 or p < 0.01. In our cell culture conditions (medium without foetal calf serum and few solvent), Pal-Gly-Lys-Thr-Thr-Lys-Ser was insoluble for concentrations > 5.4 ppm. Table 1: Effect of Pal-Gly-Lys-Thr-Thr-Lys-Ser (SEQ ID NO: 14) on NHDF's Collagen I. Results (from 4 independent experimentations) are in percent compared to the negative control.

Q: Which insoluble for concentrations does the source give for CCCCCCCCCCCCCCCC(=O)NCC(=O)N[C@@H](CCCCN)C(=O)N[C@H](C(=O)N[C@H](C(=O)N[C@@H](CCCCN)C(=O)N[C@@H](CO)C(=O)O)[C@@H](C)O)[C@@H](C)O [N-Palmitoyl-Gly-Lys-Thr-Thr-Lys-Ser] (Palmitoyl-GKTTKS-OH) here?
A: Its insoluble for concentrations is greater than 5.4 ppm.
